# Read-outs that look alike come from different tables or passages of the source.
# Experiments:
# [1] = tested on: Factor V; conditions: sites I, II and III of FV; ref [11]; cited from earlier work
# Excerpt: Factor V (FV) is a well-studied large protein, consists of six domains, involved in the blood coagulation cascade. […] Both the proteins cleave the FV at three different sites of FV viz., site I (Arg709–Ser710), site II (Arg1018–Thr1019), and site III (Arg1545–Ser1546). Highly glycosylated B domain of FV is removed by these proteases to achieve an active form of FV.
# [2] = tested on: fibrinogen, prothrombin, factor VIII, and FX; conditions: ref [14], [15]; cited from earlier work
# Excerpt: (§1) Both these proteins are active against different molecular substrates.
# [3] = ref [16], [17]; cited from earlier work
# Excerpt: as §1
# [4] = molecular target: T1, RVV-V (Daboia siamensis, UniProt P18965); conditions: ref [16], [17]; cited from earlier work
# Excerpt: In general, serine proteases are robust and highly sensitive for the cleavage sites; they contain catalytic triad or diad in the active site. […] Both these proteins are active against different molecular substrates. The molecular structure and the catalytic triad arrangement of the RVV-V are analogous with that of the thrombin.
# [5] = molecular target: T1, RVV-V; conditions: two-state fit
# Method: The Russel viper venom was purchased from Irula Snake-Catchers Industrial Cooperative Society (ISCICS), Tamil Nadu, India. The RVV-V was purified as described by Shiffman et al., with some changes. Lyophilized Crude venom (100 mg) was dissolved in 1 ml of 50 mM Sodium Acetate buffer (pH 5.5). The solution was centrifuged at 12,000 rpm for 10 minutes at 4°C and the supernatant was loaded to Sephadex S-100 column (FPLC). Peaks containing the RVV-V were pooled and loaded for CM Sepharose FFCation Exchange (Pharmacia) column (equilibrated with 50 mM sodium acetate buffer pH 5.5). Proteins were eluted with 50mM Na-acetate buffer with gradient 0 to 1 M Sodium Chloride. The fractions of RVV-V were pooled, dialyzed in 50 mM sodium-acetate buffer, and concentrated. Further, the binding kinetics was performed for RVV-V with both the peptides (purchased from Genei™) by SPR method.
# The SPR is a well-known primary protein-ligand screening method for the measurement of a real-time, label-free detection of biomolecular interactions like protein-peptide, antibody-antigen, and protein-DNA interactions. A small amount of protein is sufficient and the affinity data are more accurate as the recorded Sensorgram is time-dependent and a continuous flow system. In the experiment the ligand is saturated with an immobilized protein followed by washing, and the association constant (Ka), and the dissociation constant (Kd) are obtained from the binding response data. Biacore T200 optical biosensor was used to get the interaction kinetics of RVV-V with the peptides. The purified RVV-V (concentration of 50 μg/ml in 50 mM sodium acetate buffer, pH 5.5) was immobilized on CM5 chip by amine-coupling method. A constant flow rate of 10μl/min was used to activate the surface of the flow cell for 7 min using a 1:1 mixture of 100 mM N-hydroxysuccinimide (NHS) and 100 mM N-ethyl-N-(dimethylaminopropyl)-carbodiimide (EDC) dissolved in water. The RVV-V was injected for 7 min, and the non-activated carboxy methyl groups on the surface were blocked by 7 min injection of 1 M ethanolamine (pH 8.5) and totally 3000 RU of the RVV-V were immobilized on the chip.
# Biacore control software was used for obtaining all data by monitoring the change in the refractive index as a function of time at a flow rate of 30 μl/min. A relative quantity of peptide bound to RVV-V was quantified by calculating the amount of net increase in the refractive index over a period as compared to the initial buffer (PBS) response. The inline subtraction is performed during each run. Before changing each peptide and the peptide-concentration, the surface of the sensor chips was washed by running the buffer (PBS) and the chip was regenerated by injecting 10 mM glycine pH 2.5 for 30 sec. The association and the dissociation times are 120 and 300 sec respectively. For both the peptides, the experiment was performed by changing the concentration of the peptides ranging from 62.5 uM to 1 mM.
# T1 sequence (P18965 25-260): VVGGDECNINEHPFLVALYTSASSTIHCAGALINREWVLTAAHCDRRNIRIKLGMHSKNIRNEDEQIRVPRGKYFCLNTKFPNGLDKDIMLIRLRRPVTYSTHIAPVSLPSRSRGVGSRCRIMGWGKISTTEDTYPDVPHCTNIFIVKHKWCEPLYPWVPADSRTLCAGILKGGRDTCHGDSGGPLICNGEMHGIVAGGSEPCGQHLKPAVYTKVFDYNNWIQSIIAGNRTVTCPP
compound,measurement,setting,value
Russell’s viper venom factor V activator [RVV-V],cleavage of FV sites,[1],cleaving the site III and does not cleave the other two thrombin-susceptible sites
same,effect on structure or activity after prolonged incubation,[2],no effect
same,amidase activity,[3],weak amidase activity
O=C(O)CN(CCN(CC(=O)O)CC(=O)O)CC(=O)O [EDTA],response of RVV-V to serine protease inhibitor,[4],no response
1008KHTHHAPLSPRTFHP1022 [Peptide II],ka1,"[5]; Biacore T200, RVV-V immobilized on CM5 chip (amine coupling, 3000 RU), PBS, 30 μl/min, peptide 62.5 uM to 1 mM, association 120 s, dissociation 300 s",760.4 M⁻¹ s⁻¹
same,Kd1,"[5]; Biacore T200, RVV-V on CM5 chip, PBS, peptide 62.5 uM to 1 mM, dissociation rate constant of first step",2.414 s⁻¹
same,kd2,"[5]; Biacore T200, RVV-V on CM5 chip, PBS, peptide 62.5 uM to 1 mM, second step",0.001942 s⁻¹
same,ka2,"[5]; Biacore T200, RVV-V on CM5 chip, PBS, peptide 62.5 uM to 1 mM, second step (conformational change)",0.0002809 s⁻¹
same,kd1,[5]; first (unstable) complex,2.414 s⁻¹
same,ka1,[5]; first reaction,760.4 M⁻¹ s⁻¹
same,kd2,[5]; second (more stable) complex,0.001942 s⁻¹
same,ka2,[5]; second reaction,0.0002809 s⁻¹
